Data as given in patent US10563263B2, “Genetic polymorphisms associated with statin response and cardiovascular diseases, methods of detection and uses thereof” (CELERA CORPORATION, priority 2010, dated 2020).

Test system: stroke or transient ischemic attack (TIA)
Experiment: CARE: stroke (including TIA) statin response by SNP genotype, hazard ratio pravastatin vs placebo (Tables 20-21)
Format: in vivo, human
Conditions: for EVENTS_RESP (total number of stroke or TIA events): CARE pravastatin arm; for HR_RESP (hazard ratio pravastatin vs placebo, stroke) / HR_RESP (hazard ratio, pravastatin-treated vs placebo-treated): CARE; for HR_RESP (hazard ratio pravastatin vs placebo, stroke): ref = placebo; for HR_RESP (hazard ratio, pravastatin-treated vs placebo-treated): stroke or TIA, pravastatin 40 mg/day
Text: Tables 20-21 provides SNPs associated with stroke risk and/or stroke statin response (reduction in stroke risk by statin treatment) in the CARE sample set. Consistent with the CARE trial, the stroke endpoint in the analysis for which the results are provided in Tables 20-21 included stroke as well as transient ischemic attack (TIA).
In Tables 20-22, certain columns are labeled “RESP”, “PLACEBO, OR “ALL”. “RESP” is for statin response as measured by comparing risk (risk for stroke, including TIA, in Tables 20-21, and risk for CHD, specifically recurrent MI, in Table 22) in the pravastatin-treated group with risk in the placebo-treated group, “PLACEBO” is the placebo-treated group, and “ALL” is the combination of the placebo-treated group and the pravastatin-treated group. “RESP” is the analysis to assess statin response in the indicated genotype group.
“EVENTS” indicates the total number of events (stroke or TIA for Tables 20-21, and recurrent MI for Table 22) in individuals with the indicated genotype.
“HR” indicates the hazard ratio.
CARE was a secondary prevention trial and WOSCOPS was a primary prevention trial.
Table 20 provides SNPs associated with stroke risk and/or stroke statin response in the CARE sample set. For example, SNPs rs10757278 and rs1333049 at chromosomal location 9p21 were associated with a reduction of stroke events by statin treatment in CARE, particularly for heterozygotes (see Table 20). Furthermore, SNPs rs12425791 and rs11833579 at chromosomal location 12p13 near the NINJ2 gene were associated with stroke risk in the placebo arm of CARE (see Table 20). […] Consistent with the CARE trial, the stroke endpoint in the analysis for which the results are provided in Tables 20-21 included stroke as well as transient ischemic attack (TIA).
Fine-mapping at the chromosome 12p13 locus was carried out by selecting 77 tagging SNPs from a 400 kb region of the chromosome 12p13 locus which covered the NINJ2 gene and other genes, genotyping these 77 SNPs, and further imputing the genotypes of approximately 250 additional SNPs in this region, for individuals in the CARE study. Analyzing these fine-mapping SNPs for association with stroke risk in the placebo arm of CARE and for stroke statin response in CARE identified SNP rs873134 in the B4GALNT3 gene in the chromosome 12p13 region near NINJ2 (see Table 21).

CC[C@H](C)C(=O)O[C@H]1C[C@H](O)C=C2C=C[C@H](C)[C@H](CC[C@@H](O)C[C@@H](O)CC(=O)O)[C@H]21 [Pravastatin, pravastatin]
EVENTS_RESP (total number of stroke or TIA events) (rs873134 genotype CC, MODE GEN, of 354 individuals): 27
EVENTS_RESP (total number of stroke or TIA events) (rs873134 genotype CT + CC, MODE DOM, of 1034 individuals): 51
EVENTS_RESP (total number of stroke or TIA events) (rs873134 genotype CT + TT, MODE REC, of 1046 individuals): 40
EVENTS_RESP (total number of stroke or TIA events) (rs873134 genotype CT, MODE GEN, of 680 individuals): 24
EVENTS_RESP (total number of stroke or TIA events) (rs873134 genotype TT, MODE GEN, of 366 individuals): 16
HR_RESP (hazard ratio pravastatin vs placebo, stroke) (rs1333049 (hCV1754666, 9p21), MODE DOM, genotype GC + GG): 0.63
HR_RESP (hazard ratio pravastatin vs placebo, stroke) (rs1333049 (hCV1754666, 9p21), MODE GEN, genotype CC): 1.11
HR_RESP (hazard ratio pravastatin vs placebo, stroke) (rs1333049 (hCV1754666, 9p21), MODE GEN, genotype GC): 0.54
HR_RESP (hazard ratio pravastatin vs placebo, stroke) (rs1333049 (hCV1754666, 9p21), MODE GEN, genotype GG): 0.96
HR_RESP (hazard ratio pravastatin vs placebo, stroke) (rs1333049 (hCV1754666, 9p21), MODE REC, genotype GC + CC): 0.7
HR_RESP (hazard ratio pravastatin vs placebo, stroke) (rs10757278 (hCV11841860, 9p21), MODE DOM, genotype GA + GG): 0.7
HR_RESP (hazard ratio pravastatin vs placebo, stroke) (rs10757278 (hCV11841860, 9p21), MODE GEN, genotype AA): 0.9
HR_RESP (hazard ratio pravastatin vs placebo, stroke) (rs10757278 (hCV11841860, 9p21), MODE GEN, genotype GA): 0.54
HR_RESP (hazard ratio pravastatin vs placebo, stroke) (rs10757278 (hCV11841860, 9p21), MODE GEN, genotype GG): 1.08
HR_RESP (hazard ratio pravastatin vs placebo, stroke) (rs10757278 (hCV11841860, 9p21), MODE REC, genotype GA + AA): 0.62
HR_RESP (hazard ratio pravastatin vs placebo, stroke) (rs11833579 (hCV1665834, 12p13), MODE DOM, genotype AG + AA): 0.64
HR_RESP (hazard ratio pravastatin vs placebo, stroke) (rs11833579 (hCV1665834, 12p13), MODE GEN, genotype AA): 0.26
HR_RESP (hazard ratio pravastatin vs placebo, stroke) (rs11833579 (hCV1665834, 12p13), MODE GEN, genotype AG): 0.75
HR_RESP (hazard ratio pravastatin vs placebo, stroke) (rs11833579 (hCV1665834, 12p13), MODE GEN, genotype GG): 0.86
HR_RESP (hazard ratio pravastatin vs placebo, stroke) (rs11833579 (hCV1665834, 12p13), MODE REC, genotype AG + GG): 0.81
HR_RESP (hazard ratio pravastatin vs placebo, stroke) (rs12425791 (hCV12094896, 12p13), MODE DOM, genotype AG + AA): 0.52
HR_RESP (hazard ratio pravastatin vs placebo, stroke) (rs12425791 (hCV12094896, 12p13), MODE GEN, genotype AA): 0.28
HR_RESP (hazard ratio pravastatin vs placebo, stroke) (rs12425791 (hCV12094896, 12p13), MODE GEN, genotype AG): 0.56
HR_RESP (hazard ratio pravastatin vs placebo, stroke) (rs12425791 (hCV12094896, 12p13), MODE GEN, genotype GG): 0.95
HR_RESP (hazard ratio pravastatin vs placebo, stroke) (rs12425791 (hCV12094896, 12p13), MODE REC, genotype AG + GG): 0.78
HR_RESP (hazard ratio, pravastatin-treated vs placebo-treated) (rs873134 (hCV2652047) genotype CC, MODE GEN): 2.01
HR_RESP (hazard ratio, pravastatin-treated vs placebo-treated) (rs873134 (hCV2652047) genotype CT + CC, MODE DOM): 0.83
HR_RESP (hazard ratio, pravastatin-treated vs placebo-treated) (rs873134 (hCV2652047) genotype CT + TT, MODE REC): 0.52
HR_RESP (hazard ratio, pravastatin-treated vs placebo-treated) (rs873134 (hCV2652047) genotype CT, MODE GEN): 0.5
HR_RESP (hazard ratio, pravastatin-treated vs placebo-treated) (rs873134 (hCV2652047) genotype TT, MODE GEN): 0.54
